Data published in patent publication US20260217765A1, “NOVEL ANTIMICROBIAL PEPTIDE DESIGNED FROM DUCK-DERIVED ANTIMICROBIAL PEPTIDE ANDUSE THEREOF” (INDUSTRY-ACADEMIC COOPERATION FOUNDATION, CHOSUN UNIVERSITY, priority 2023, published 2026).
≈ marks a conversion by molar mass, not a printed value. Peptide text beside a SMILES is read from it.

Columns and labels:
[1] = tested on: Acinetobacter baumannii_isolate 10; format: cell-based, Acinetobacter baumannii; conditions: isolate 10, 24 h
Procedure: (§1) Specifically, among the bacterial strains listed in Table 2, those known to form biofilms well (Acinetobacter baumannii KCTC 2508, Acinetobacter baumannii isolate 10, and isolate 14) were cultured in the appropriate media to the mid-log phase and diluted to a cell concentration of 5×10^4 cells/100 µL, followed by inoculation into microplates (SPL). Subsequently, the peptides prepared in <Example 1> were serially 10-fold diluted with 10 mM sodium phosphate buffer (pH 7.2), and 10 μL of each dilution was added to each well. The plates were then incubated at 37° C. for 24 hours. After completely removing the supernatant, the plates were fixed with 100% methanol for 15 minutes, stained with crystal violet staining solution for 1 hour, washed three times, and then the stain was solubilized with 95% ethanol. Absorbance was measured at 595 nm using a microplate reader to determine the MBIC values for each bacterial strain.

[2] = tested on: Acinetobacter baumannii_isolate 14; format: cell-based, Acinetobacter baumannii; conditions: isolate 14, 24 h
Procedure: as §1

[3] = tested on: Acinetobacter baumannii_isolate 10 (antibiotic-resistant); format: cell-based, Acinetobacter baumannii; conditions: isolate 10 (antibiotic-resistant)
Procedure, shortened: (§2)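 Each isolate is cultured to mid-log phase, then diluted to 2×10^4 cells/100 μL. Serial 2-fold peptide dilutions are added and plates are incubated 18 hours at 37° C. Growth is read at 600 nm to assign the MIC.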

[4] = tested on: Acinetobacter baumannii_isolate 22 (antibiotic-resistant); format: cell-based, Acinetobacter baumannii; conditions: isolate 22 (antibiotic-resistant)
Procedure, shortened: as §2

[5] = tested on: Acinetobacter baumannii_isolate 4 (antibiotic-resistant); format: cell-based, Acinetobacter baumannii; conditions: isolate 4 (antibiotic-resistant)
Procedure, shortened: as §2

[6] = tested on: Acinetobacter baumannii_isolate 8 (antibiotic-resistant); format: cell-based, Acinetobacter baumannii; conditions: isolate 8 (antibiotic-resistant)
Procedure, shortened: as §2

[7] = tested on: Acinetobacter baumannii_isolate11 (antibiotic-resistant); format: cell-based, Acinetobacter baumannii; conditions: isolate11 (antibiotic-resistant)
Procedure, shortened: as §2

[8] = tested on: Acinetobacter baumannii_isolate16 (antibiotic-resistant); format: cell-based, Acinetobacter baumannii; conditions: isolate16 (antibiotic-resistant)
Procedure, shortened: as §2

[9] = tested on: Acinetobacter baumannii_isolate 1 (antibiotic-resistant); format: cell-based, Acinetobacter baumannii; conditions: isolate 1 (antibiotic-resistant)
Procedure, shortened: as §2

[10] = tested on: Acinetobacter baumannii_isolate 19 (antibiotic-resistant); format: cell-based, Acinetobacter baumannii; conditions: isolate 19 (antibiotic-resistant)
Procedure, shortened: as §2

[11] = tested on: Acinetobacter baumannii_isolate 26 (antibiotic-resistant); format: cell-based, Acinetobacter baumannii; conditions: isolate 26 (antibiotic-resistant)
Procedure, shortened: as §2

[12] = tested on: Acinetobacter baumannii_isolate 23 (antibiotic-resistant); format: cell-based, Acinetobacter baumannii; conditions: isolate 23 (antibiotic-resistant)
Procedure, shortened: as §2

[13] = tested on: Acinetobacter baumannii_isolate 25 (antibiotic-resistant); format: cell-based, Acinetobacter baumannii; conditions: isolate 25 (antibiotic-resistant)
Procedure, shortened: as §2

[14] = tested on: Acinetobacter baumannii_isolate20 (antibiotic-resistant); format: cell-based, Acinetobacter baumannii; conditions: isolate20 (antibiotic-resistant)
Procedure, shortened: as §2

[15] = tested on: Acinetobacter baumannii membrane; experiment: Flow cytometry, propidium iodide, action on bacterial membrane; format: cell-based; conditions: peptide at twice the MIC, 37° C. 10 minutes
Procedure: To determine whether the peptides prepared in <Example 1> act on bacterial membranes, the parent peptide and the novel peptides dCATH-A1, dCATH-A2, dCATH-A3, dCATH-A4, dCATH-A5, dCATH-A6, and dCATH-A7 were analyzed using flow cytometry.
Specifically, Acinetobacter baumannii was treated with each peptide at twice the minimum inhibitory concentration (MIC), followed by incubation at 37° C. for 10 minutes. The supernatant was then removed by centrifugation at 10,000 rpm, and the bacterial cells were stained with propidium iodide (PI) at a concentration of 10 μg/mL at 4° C. for 30 minutes. Unbound PI was removed by centrifugation, and 1 mL of phosphate-buffered saline (PBS) was added to disperse any cell clumps. The effect of the peptides on the bacterial membrane was then assessed using a Beckman flow cytometer.

[16] = tested on: plasmid DNA (pRSETB); experiment: Binding to bacterial DNA, agarose gel electrophoresis; conditions: 260 ng plasmid DNA, DNA/peptide ratios 1:1 to 1:4, 37° C. 10 minutes
Procedure: Accordingly, to further elucidate the mechanism by which these novel peptides exert antimicrobial activity, it was examined whether the novel peptides dCATH-A6 and dCATH-A7 bind to intracellular bacterial DNA using electrophoresis.
Specifically, 260 ng of plasmid DNA (pRSETB) was reacted with each peptide at various ratios (lanes 1 through […] represent DNA only, 1:1, 1:2, 1:3, and 1:4 DNA/peptide ratios, respectively) at 37° C. for 10 minutes. The samples were then subjected to electrophoresis on a 1% agarose gel, stained with ethidium bromide (EtBr), and visualized under UV light.

SMILES | MIC [3] [µM] | MIC [4] [µM] | MIC [5] [µM] | MIC [6] [µM] | MIC [7] [µM] | MIC [8] [µM] | MIC [9] [µM] | MIC [10] [µM] | MIC [11] [µM] | MIC [12] [µM] | MIC [13] [µM] | MIC [14] [µM] | binding to DNA (electrophoresis) [16] | MBIC [1] [µM] | MBIC [2] [µM] | membrane damage in Acinetobacter baumannii (shift in PI fluorescence signal) [15]
CC[C@H](C)[C@H](NC(=O)[C@H](C)NC(=O)[C@H](CC(C)C)NC(=O)[C@@H]1CCCN1C(=O)[C@@H](NC(=O)[C@H](CC(C)C)NC(=O)[C@H](CCC(N)=O)NC(=O)[C@H](Cc1c[nH]c2ccccc12)NC(=O)[C@H](Cc1ccccc1)NC(=O)[C@H](CCCNC(=N)N)NC(=O)[C@@H](N)CCCCN)C(C)C)C(=O)N[C@@H](CCCCN)C(=O)N[C@H](C(=O)N[C@@H](Cc1ccc(O)cc1)C(=O)N[C@@H](CCCNC(=N)N)C(=O)N[C@@H](C)C(=O)N[C@@H](Cc1c[nH]c2ccccc12)C(=O)N[C@@H](CCCCN)C(=O)N[C@@H](CCCNC(=N)N)C(=O)N[C@@H](CCCNC(=N)N)C(N)=O)[C@@H](C)CC [dCATH, reference compound] (H-KRFWQLVPLAIKIYRAWKRR-NH2; N-terminus assumed) | 2 (≈ 5.26 µg/mL) | 2 (≈ 5.26 µg/mL) | 2 (≈ 5.26 µg/mL) | 2 (≈ 5.26 µg/mL) | 2 (≈ 5.26 µg/mL) | 2 (≈ 5.26 µg/mL) | 2 (≈ 5.26 µg/mL) | 2 (≈ 5.26 µg/mL) | 2 (≈ 5.26 µg/mL) | 2 (≈ 5.26 µg/mL) | 2 (≈ 5.26 µg/mL) | 2 (≈ 5.26 µg/mL) | no detectable binding to DNA | 4 | 4 | induced membrane damage
CC[C@H](C)[C@H](NC(=O)[C@H](C)NC(=O)[C@H](CC(C)C)NC(=O)[C@@H]1CCCN1C(=O)[C@@H](NC(=O)[C@H](CC(C)C)NC(=O)[C@H](CCC(N)=O)NC(=O)[C@H](Cc1c[nH]c2ccccc12)NC(=O)[C@H](C)NC(=O)[C@H](CCCNC(=N)N)NC(=O)[C@@H](N)CCCCN)C(C)C)C(=O)N[C@@H](CCCCN)C(=O)N[C@H](C(=O)N[C@@H](Cc1ccc(O)cc1)C(=O)N[C@@H](CCCNC(=N)N)C(=O)N[C@@H](C)C(=O)N[C@@H](Cc1c[nH]c2ccccc12)C(=O)N[C@@H](CCCCN)C(=O)N[C@@H](CCCNC(=N)N)C(=O)N[C@@H](CCCNC(=N)N)C(N)=O)[C@@H](C)CC [dCATH-A1] (H-KRAWQLVPLAIKIYRAWKRR-NH2; N-terminus assumed) | 2 (≈ 5.1 µg/mL) | 2 (≈ 5.1 µg/mL) | 2 (≈ 5.1 µg/mL) | 2 (≈ 5.1 µg/mL) | 2 (≈ 5.1 µg/mL) | 2 (≈ 5.1 µg/mL) | 2 (≈ 5.1 µg/mL) | 1 (≈ 2.55 µg/mL) | 2 (≈ 5.1 µg/mL) | 1 (≈ 2.55 µg/mL) | 2 (≈ 5.1 µg/mL) | 1 (≈ 2.55 µg/mL) |  | 4 | 2 | 
CC[C@H](C)[C@H](NC(=O)[C@H](C)NC(=O)[C@H](CC(C)C)NC(=O)[C@@H]1CCCN1C(=O)[C@@H](NC(=O)[C@H](CC(C)C)NC(=O)[C@H](CCC(N)=O)NC(=O)[C@H](C)NC(=O)[C@H](Cc1ccccc1)NC(=O)[C@H](CCCNC(=N)N)NC(=O)[C@@H](N)CCCCN)C(C)C)C(=O)N[C@@H](CCCCN)C(=O)N[C@H](C(=O)N[C@@H](Cc1ccc(O)cc1)C(=O)N[C@@H](CCCNC(=N)N)C(=O)N[C@@H](C)C(=O)N[C@@H](Cc1c[nH]c2ccccc12)C(=O)N[C@@H](CCCCN)C(=O)N[C@@H](CCCNC(=N)N)C(=O)N[C@@H](CCCNC(=N)N)C(N)=O)[C@@H](C)CC [dCATH-A2] (H-KRFAQLVPLAIKIYRAWKRR-NH2; N-terminus assumed) | 2 (≈ 5.03 µg/mL) | 1 (≈ 2.51 µg/mL) | 2 (≈ 5.03 µg/mL) | 1 (≈ 2.51 µg/mL) | 1 (≈ 2.51 µg/mL) | 1 (≈ 2.51 µg/mL) | 2 (≈ 5.03 µg/mL) | 1 (≈ 2.51 µg/mL) | 2 (≈ 5.03 µg/mL) | 1 (≈ 2.51 µg/mL) | 1 (≈ 2.51 µg/mL) | 1 (≈ 2.51 µg/mL) |  | 2 | 2 | 

Now from value to compound, other results behind:

MIC [3] [µM] | MIC [4] [µM] | MIC [5] [µM] | MIC [6] [µM] | MIC [7] [µM] | MIC [8] [µM] | MIC [9] [µM] | MIC [10] [µM] | MIC [11] [µM] | MIC [12] [µM] | MIC [13] [µM] | MIC [14] [µM] | binding to DNA (electrophoresis) [16] | SMILES | MBIC [1] [µM] | MBIC [2] [µM] | membrane damage in Acinetobacter baumannii (shift in PI fluorescence signal) [15]
2 (≈ 4.87 µg/mL) | 1 (≈ 2.44 µg/mL) | 1 (≈ 2.44 µg/mL) | 1 (≈ 2.44 µg/mL) | 1 (≈ 2.44 µg/mL) | 1 (≈ 2.44 µg/mL) | 1 (≈ 2.44 µg/mL) | 1 (≈ 2.44 µg/mL) | 1 (≈ 2.44 µg/mL) | 1 (≈ 2.44 µg/mL) | 1 (≈ 2.44 µg/mL) | 1 (≈ 2.44 µg/mL) |  | CC[C@H](C)[C@H](NC(=O)[C@H](C)NC(=O)[C@H](CC(C)C)NC(=O)[C@@H]1CCCN1C(=O)[C@@H](NC(=O)[C@H](CC(C)C)NC(=O)[C@H](CCC(N)=O)NC(=O)[C@H](C)NC(=O)[C@H](C)NC(=O)[C@H](CCCNC(=N)N)NC(=O)[C@@H](N)CCCCN)C(C)C)C(=O)N[C@@H](CCCCN)C(=O)N[C@H](C(=O)N[C@@H](Cc1ccc(O)cc1)C(=O)N[C@@H](CCCNC(=N)N)C(=O)N[C@@H](C)C(=O)N[C@@H](Cc1c[nH]c2ccccc12)C(=O)N[C@@H](CCCCN)C(=O)N[C@@H](CCCNC(=N)N)C(=O)N[C@@H](CCCNC(=N)N)C(N)=O)[C@@H](C)CC [dCATH-A3] (H-KRAAQLVPLAIKIYRAWKRR-NH2; N-terminus assumed) | 2 | 1 | 
4 (≈ 9.87 µg/mL) | 2 (≈ 4.94 µg/mL) | 2 (≈ 4.94 µg/mL) | 2 (≈ 4.94 µg/mL) | 2 (≈ 4.94 µg/mL) | 2 (≈ 4.94 µg/mL) | 2 (≈ 4.94 µg/mL) | 2 (≈ 4.94 µg/mL) | 2 (≈ 4.94 µg/mL) | 2 (≈ 4.94 µg/mL) | 2 (≈ 4.94 µg/mL) | 2 (≈ 4.94 µg/mL) |  | CC[C@H](C)[C@H](NC(=O)[C@H](C)NC(=O)[C@H](CC(C)C)NC(=O)[C@H](CCCCN)NC(=O)[C@@H](NC(=O)[C@H](CC(C)C)NC(=O)[C@H](CCC(N)=O)NC(=O)[C@H](C)NC(=O)[C@H](C)NC(=O)[C@H](CCCNC(=N)N)NC(=O)[C@@H](N)CCCCN)C(C)C)C(=O)N[C@@H](CCCCN)C(=O)N[C@H](C(=O)N[C@@H](Cc1ccc(O)cc1)C(=O)N[C@@H](CCCNC(=N)N)C(=O)N[C@@H](C)C(=O)N[C@@H](Cc1c[nH]c2ccccc12)C(=O)N[C@@H](CCCCN)C(=O)N[C@@H](CCCNC(=N)N)C(=O)N[C@@H](CCCNC(=N)N)C(N)=O)[C@@H](C)CC [dCATH-A4] (H-KRAAQLVKLAIKIYRAWKRR-NH2; N-terminus assumed) | 4 | 4 | 
1 (≈ 2.48 µg/mL) | 2 (≈ 4.97 µg/mL) | 1 (≈ 2.48 µg/mL) | 1 (≈ 2.48 µg/mL) | 1 (≈ 2.48 µg/mL) | 1 (≈ 2.48 µg/mL) | 1 (≈ 2.48 µg/mL) | 1 (≈ 2.48 µg/mL) | 1 (≈ 2.48 µg/mL) | 1 (≈ 2.48 µg/mL) | 1 (≈ 2.48 µg/mL) | 1 (≈ 2.48 µg/mL) |  | CC[C@H](C)[C@H](NC(=O)[C@H](C)NC(=O)[C@H](CCCCN)NC(=O)[C@H](CCCCN)NC(=O)[C@@H](NC(=O)[C@H](CC(C)C)NC(=O)[C@H](CCC(N)=O)NC(=O)[C@H](C)NC(=O)[C@H](C)NC(=O)[C@H](CCCNC(=N)N)NC(=O)[C@@H](N)CCCCN)C(C)C)C(=O)N[C@@H](CCCCN)C(=O)N[C@H](C(=O)N[C@@H](Cc1ccc(O)cc1)C(=O)N[C@@H](CCCNC(=N)N)C(=O)N[C@@H](C)C(=O)N[C@@H](Cc1c[nH]c2ccccc12)C(=O)N[C@@H](CCCCN)C(=O)N[C@@H](CCCNC(=N)N)C(=O)N[C@@H](CCCNC(=N)N)C(N)=O)[C@@H](C)CC [dCATH-A5] (H-KRAAQLVKKAIKIYRAWKRR-NH2; N-terminus assumed) | 2 | 1 | 
